Results taken from US20090286722A1 (priority 2005, published 2009).

Columns and labels:
[1] = target: purified porcine dipeptidyl peptidase IV (Sus scrofa, UniProt P22411); assay: DPP IV degradation, % intact peptide by HPLC; assay type: in vitro ADME; conditions: 37° C., pH 7.8
Experimental: (§1) HPLC peak area data were used to calculate the percentage intact peptide remaining at the various time points during the incubation.

[2] = target: dipeptidyl peptidase IV (Sus scrofa, UniProt P22411); assay: DPP IV degradation, % intact peptide by HPLC; assay type: in vitro ADME, porcine; conditions: pig, purified porcine dipeptidyl peptidase IV (DPP IV), 37° C., pH 7.8
Sequence of dipeptidyl peptidase IV (P22411 whole entry): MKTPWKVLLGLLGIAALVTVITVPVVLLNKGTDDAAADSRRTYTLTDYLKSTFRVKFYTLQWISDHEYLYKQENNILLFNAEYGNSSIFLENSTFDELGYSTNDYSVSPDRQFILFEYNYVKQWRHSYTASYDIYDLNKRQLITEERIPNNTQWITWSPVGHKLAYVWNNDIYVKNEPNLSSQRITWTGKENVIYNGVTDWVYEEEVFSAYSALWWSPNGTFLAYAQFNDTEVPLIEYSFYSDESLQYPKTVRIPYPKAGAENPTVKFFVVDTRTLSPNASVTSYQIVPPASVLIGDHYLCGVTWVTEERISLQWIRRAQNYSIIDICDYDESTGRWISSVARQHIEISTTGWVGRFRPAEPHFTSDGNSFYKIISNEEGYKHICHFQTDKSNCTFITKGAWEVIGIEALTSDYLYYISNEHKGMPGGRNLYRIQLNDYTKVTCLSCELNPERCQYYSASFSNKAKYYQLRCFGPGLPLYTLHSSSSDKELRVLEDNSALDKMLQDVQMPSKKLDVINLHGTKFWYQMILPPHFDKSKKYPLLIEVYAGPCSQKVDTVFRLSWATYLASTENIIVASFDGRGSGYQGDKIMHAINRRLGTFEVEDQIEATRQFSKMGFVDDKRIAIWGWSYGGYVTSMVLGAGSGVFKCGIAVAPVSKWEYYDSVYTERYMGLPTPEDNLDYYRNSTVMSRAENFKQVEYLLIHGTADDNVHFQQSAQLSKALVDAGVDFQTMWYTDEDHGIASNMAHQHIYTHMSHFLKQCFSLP
Experimental: as §1

[3] = test system: ob/ob mice; assay: Glucose tolerance 4 hours after peptide administration in 18 hour fasted ob/ob mice; assay type: in vivo; conditions: 25 nmoles/kg, glucose 18 mmoles/kg
[4] = test system: ob/ob mice; assay: 24 hour plasma glucose and insulin profile after a single dose in non-fasted ob/ob mice; assay type: in vivo
Source text: Dose of 12.5 nmol kg^−1 was chosen to evaluate the longer-term duration of action of a single dose of native or fatty acid derivatised GIP in non-fasted ob/ob mice.

[5] = test system: ob/ob mice; assay: Once daily i.p. injection for 14 days in ob/ob mice
Experimental: (§2) Obese diabetic (ob/ob) mice derived from the colony maintained at Aston University, UK (23) were used at 12-16 weeks of age. […] Drinking water and standard rodent maintenance diet (Trouw Nutrition, Cheshire, UK) were freely available.
(§3) Food intake and body weight were recorded daily from 5 days before commencement of the treatment regimes. Plasma glucose and insulin concentrations (10:00 h) were monitored at 2-4 day intervals. […] All acute tests were commenced at 10:00 h. […] Serum samples were taken for determination of glucagon concentrations. All other blood samples were collected from the cut tip of the tail vein of conscious mice into chilled fluoride/heparin coated glucose microcentrifuge tubes (Sarstedt, Nümbrecht, Germany) at the times indicated in the Figures. Blood samples were immediately centrifuged using a Beckman microcentrifuge (Beckman Instruments, Galway, Ireland) for 30 seconds at 13,000×g. The resulting plasma was then aliquoted into fresh tubes and stored at −20° C. prior to glucose and insulin determinations.

[6] = test system: DPP IV; conditions: cited: O'Harte 2002; Irwin 2005; cited from earlier work
[7] = test system: ob/ob mice; assay: Acute glucose lowering and insulin release, peptide given i.p. with glucose to 18 hour fasted ob/ob mice
Experimental: as §2, §3

[8] = after 14 daily injections, glucose 18 mmoles/kg
[9] = after 14 days, glucose 18 mmoles/kg with native GIP
[10] = 25 nmol/kg i.p. with glucose 18 mmol/kg

Sequence of purified porcine dipeptidyl peptidase IV (P22411 whole entry): as above

CCCCCCCCCCCCCCCC(=O)NCCCC[C@H](NC(=O)[C@H](Cc1c[nH]c2ccccc12)NC(=O)[C@H](CC(=O)O)NC(=O)[C@H](CC(N)=O)NC(=O)[C@H](CCCCN)NC(=O)[C@H](CCCCN)NC(=O)CNC(=O)[C@H](CCCCN)NC(=O)[C@H](CCC(N)=O)NC(=O)[C@H](C)NC(=O)[C@H](CC(C)C)NC(=O)[C@H](CC(C)C)NC(=O)[C@H](Cc1c[nH]c2ccccc12)NC(=O)[C@H](CC(N)=O)NC(=O)[C@@H](NC(=O)[C@H](Cc1ccccc1)NC(=O)[C@H](CC(=O)O)NC(=O)[C@H](CCC(N)=O)NC(=O)[C@H](CCC(N)=O)NC(=O)[C@H](Cc1c[nH]cn1)NC(=O)[C@@H](NC(=O)[C@H](CCCCN)NC(=O)[C@H](CC(=O)O)NC(=O)[C@H](CCSC)NC(=O)[C@H](C)NC(=O)[C@@H](NC(=O)[C@H](CO)NC(=O)[C@H](Cc1ccc(O)cc1)NC(=O)[C@H](CC(=O)O)NC(=O)[C@H](CO)NC(=O)[C@@H](NC(=O)[C@H](Cc1ccccc1)NC(=O)[C@@H](NC(=O)CNC(=O)[C@H](CCC(=O)O)NC(=O)[C@H](C)NC(=O)[C@@H](N)Cc1ccc(O)cc1)[C@@H](C)O)[C@@H](C)CC)[C@@H](C)CC)[C@@H](C)CC)C(C)C)C(=O)N[C@@H](Cc1c[nH]cn1)C(=O)N[C@@H](CC(N)=O)C(=O)N[C@H](C(=O)N[C@H](C(=O)N[C@@H](CCC(N)=O)C(=O)O)[C@@H](C)O)[C@@H](C)CC [GIP(LysPAL^37)]
% Intact peptide remaining after time (h) 0 ([1]; 0 h incubation with DPP IV (5 mU)): 100%
% Intact peptide remaining after time (h) 24 ([1]; 24 h incubation with DPP IV (5 mU)): remained fully intact
remaining at 2 h, 2 mM ([2]; 2 h incubation with DPP IV (5 mU), read-out: % Intact peptide remaining after time (h) 2): 100%
remaining at 8 h, 2 mM ([2]; 8 h incubation with DPP IV (5 mU), read-out: % Intact peptide remaining after time (h) 8): 100%
remaining at 24 h, 2 mM ([2]; 24 h incubation with DPP IV (5 mU), read-out: % Intact peptide remaining after time (h) 24): 100%
insulinotropic properties 4 hours after administration [3]: less evident
reduction of glycaemic excursion following i.p. glucose 4 hours after administration ([3]; versus saline): 18%
effect on plasma glucose over 24 hours ([4]; single 12.5 nmol/kg i.p.): significant (P<0.01) and sustained decrease
glucose concentrations at 24 hours and AUC values versus native GIP or saline treated controls ([4]; single 12.5 nmol/kg i.p.): significantly less
insulin concentrations from 4 to 24 hours versus controls ([4]; single 12.5 nmol/kg i.p.): not significantly different
time for which decline of plasma glucose was sustained after single injection ([4]; single injection): at least 24 hours
effect on body weight ([5]; 25 nmoles/kg/day, 14 days): no effect
effect on food intake ([5]; 25 nmoles/kg/day, 14 days): no effect
non-fasting plasma insulin concentrations (tendency towards elevated) ([5]; 25 nmoles/kg/day, 14 days): did not achieve statistical significance
non-fasting plasma glucose concentrations at 14 days versus control ([5]; 25 nmoles/kg/day, day 14): significantly (p<0.05) lowered
plasma glucagon on day 14 versus control ([5]; 25 nmoles/kg/day, day 14): no differences observed
islet area compared with saline-treated ob/ob mice ([5]; after 14 daily injections): significant increases
number of pancreatic islets compared with saline-treated ob/ob mice ([5]; after 14 daily injections): significant increases
pancreatic insulin content compared with saline-treated controls ([5]; after 14 daily injections): did not affect
pancreatic weight compared with saline-treated controls ([5]; after 14 daily injections): did not affect
insulinotropic response following i.p. glucose versus control [5, 8]: augmented
overall glycaemic excursion after i.p. glucose versus control [5, 8]: significantly reduced
plasma glucose response to 15 minutes feeding, at 15 minutes ([5]; after 14 days, 18 hours fasted): significantly lowered
plasma insulin response to 15 minutes feeding, at 15 minutes ([5]; after 14 days, 18 hours fasted): significantly increased
overall insulinotropic response to feeding ([5]; after 14 days, 18 hours fasted, AUC 0-105 min): overall increased insulinotropic response
hypoglycemic action of insulin (insulin sensitivity), AUC and post injection values versus controls ([5]; after 14 days, insulin 50 U/kg i.p.): significantly augmented
glycaemic excursions after glucose with native GIP compared to control animals [5, 9]: significantly decreased
overall glucose-dependent insulinotropic response to native GIP [5, 9]: significantly augmented
adverse effects following long-term administration ([5]; long-term administration): No adverse effects were observed
resistance to DPP IV degradation [6]: increased resistance to DPP IV degradation
glucose AUC response compared to native GIP [7, 10]: significant reduction
plasma glucose concentrations and AUC (0-60 min) compared to glucose alone [7, 10]: significantly reduced
overall enhancement of insulin release over native GIP ([7]; 25 nmol/kg i.p. with glucose, insulin AUC 0-60 min): 2.7 fold
